Results reported in PMC9972480, “Synthesis of Quinoline and Dihydroquinoline Embelin Derivatives as Cardioprotective Agents” (Journal of Natural Products, 2023).
Like-named read-outs stand apart in the source and are kept apart here. Marks after values point to notes of the source that are not given here.

Assays:
[1] = tested on: J774 macrophages; experiment: MTT cell viability assay (cytotoxicity) in J774 macrophages; type: cell-based, murine
Procedure: (§1) The potential cytotoxicity of embelin (1) together with derivatives (4a–4m, 5a–5d, 6a–6m) was tested in cardiomyocytes and macrophages in order to ensure that compounds lack toxicity also in immune cells. Cell viability was determined by the MTT assay.[58] Four dihydroquinoline derivatives (4b, 4f, 4i, and 4m) and six quinoline compounds (6a, 6d, 6e, 6i, 6k, and 6m) maintained higher viable cell rates in both types of cells. IC50 values of these derivatives were higher than 40 μM and were selected for further analysis.
(§2) J774A.1 murine macrophage cells, H9c2 embryonic rat heart-derived cells, and MCF-7 breast cancer cells were purchased from American Type Cell Culture (ATCC, Manassas, VA, USA). Cells were cultured in Dulbecco’s modified Eagle medium with 10% fetal bovine serum and 1% penicillin/streptomycin (Lonza) and were maintained at 37 °C in a humidified incubator containing 5% CO2.
(§3) Cell viability was assessed by conducting an MTT [3-(4,5-dimethylthiazol-2-yl)-2,5-diphenyltetrazolium bromide dye] assay. Briefly, J 774A.1, H9c2, and MCF7 cells were seeded in 96-well plates for 24 h. Then, cells were treated with DOX in the absence or presence of compounds. MTT (Sigma) reagent was added to the medium for 1 h at 37 °C. Then, the formazan was dissolved in dimethyl sulfoxide (DMSO, 100 μL). Absorbance was measured at 540 nm with a microplate reader (BMG Labtech).

[2] = tested on: H9c2 cardiomyocytes; experiment: MTT cell viability assay (cytotoxicity) in H9c2 cardiomyocytes; type: cell-based, rat
Procedure: as §1, §2, §3

[3] = tested on: MCF-7 human breast tumor cells; experiment: Effect on chemotherapeutic activity of DOX, MTT; type: cell-based; conditions: MCF-7 cells, compound 20 μM + DOX 1 μM, 24 h
Procedure: Next, cytotoxicity of the selected compounds was also tested in MCF-7 breast cancer cells to disconfirm that protective effects might antagonize the antitumor effects of doxorubicin.
Figure 4 Effects of derivatives 4i, 6a, 6d, 6e, 6k, and 6m on the chemotherapeutic activity of DOX in MCF-7 human breast tumor cells. Cells were co-treated with selected compounds at 20 μM and DOX (1 μM) for 24 h. Cell viability was measured by MTT assay. Results are reported as mean of cell viability ± SD (n = 3). ****p < 0.0001 vs DOX-treated cells.
as §3

[4] = tested on: ROS in H9c2 cells; experiment: Intracellular ROS levels, DCFH-DA assay; type: cell-based, rat; conditions: for ROS production on co-treatment with DOX: compound 20 μM + DOX 1 μM, 24 h, vs DOX-treated cells
Procedure: Oxidative stress is produced by an imbalance between radical oxygen species (ROS) formation and endogenous antioxidant activation in reaction to cell injury, leading to myocardial toxicity. Accordingly, DOX-induced ROS production in the H9c2 cells was quantified with the DCFH-DA fluorogenic dye. […] No effects on ROS production were observed when compounds were incubated alone with cells. […] The inhibitory effects of embelin derivatives were similar to those induced by N-acetyl-cysteine (NAC), a well-known antioxidant.
Figure 5 Derivatives 4i, 6a, 6d, 6k, and 6m reduced ROS levels produced by DOX in H9c2 cells. Levels of ROS in H9c2 cells were measured fluorometrically after treatment with DOX (1 μM) alone or co-treatment with N-acetyl cysteine (NAC, 1 mM) or selected derivatives (20 μM) for 24 h, using the 2′,7′-dichlorfluorescein-diacetate (DCFH-DA) assay. Values are expressed as mean ± SD with respect to DOX-treated cells (n = 3). ****p < 0.0001 vs DOX-treated cells.
Intracellular ROS levels in H9c2 cells were evaluated by monitoring the oxidation of 2′,7′-dichlorfluorescein-diacetate (DCFH-DA) (Sigma) to fluorescent dichlorofluorescein. Cells were treated with DOX (1 μM) in the absence or presence of compounds or NAC as ROS inhibitor (1 mM) (Sigma). Then, cells were incubated with 10 μM DCFH-DA at 37 °C in the dark for 30 min. ROS level was fluorimetrically evaluated at 485/550 nm during 24 h.

[5] = MTT cell viability assay (cytotoxicity) in J774 macrophages; type: cell-based, murine; conditions: mouse
Procedure: as §1, §2, §3

[6] = MTT cell viability assay (cytotoxicity) in H9c2 cardiomyocytes; type: cell-based, rat; conditions: rat, H9c2 cardiomyocytes, 24 h, MTT
Procedure: as §1, §2, §3

Compound | Cell viability (%) J774 macrophages 10 μM [1] | Cell viability (%) J774 macrophages 20 μM [1] | IC50 [1] [µM] | Cell viability (%) H9c2 cardiomyocytes 10 μM [2] [%] | Cell viability (%) H9c2 cardiomyocytes 20 μM [2] [%] | IC50 [2] [µM] | Effect on antitumor (chemotherapeutic) activity of DOX [3] | ROS production on co-treatment with DOX [4] | IC50 at 24 h [5] [µM] | viability at 24 h, 10 µM [5] [%] | viability at 24 h, 20 µM [5] [%] | IC50 at 24 h ([6]; H9c2 cardiomyocytes (embryonic heart-derived cells), stated for both types of cells) [µM] | viability at 24 h, 10 µM ([6]; 10 μM, mean ± SD, n = 3) [%] | viability at 24 h, 20 µM ([6]; 20 μM, mean ± SD, n = 3) [%] | melting point [°C] | IC50 ([2]; Rattus norvegicus, H9c2 cardiomyocytes, 24 h, MTT, read-out: IC50 (loss in cell viability, DOX-treated vs untreated cells)) [µM] | Levels of ROS compared to untreated cells ([4]; DOX 1 μM alone)
2-Hydroxy-7-methoxy-9-(4-nitrophenyl)-3-undecylacridine-1,4-dione [Compound 6k] | 81.9 ± 4.6 ^e % | 76.3 ± 5.3 ^e % | > 40 | 99.2 ± 0.8 | 94.4 ± 6.3 | > 40 | without reducing DOX’s chemotherapeutic effect | significantly inhibited ROS production | – | – | – | – | – | – | – | – | –
CCCCCCCCCCCC1=C(O)C(=O)C2=C(Nc3ccccc3C2c2ccc(C)c(C)c2)C1=O (stereo not shown) [Compound 4i, 2-Hydroxy-9-(3,4-dimethylphenyl)-3-undecyl-9,10-dihydroacridine-1,4-dione] | – | – | – | – | – | – | without reducing DOX’s chemotherapeutic effect | significantly inhibited ROS production | > 40 | 96.2 ± 6.8 | 72.6 ± 1.7 | > 40 | 84.3 ± 6.8 | 82.2 ± 6.2 | 106 to 108 | – | –
COc1cccc2c1C(=O)c1c(O)c3c(c(O)c1C2=O)C[C@@](O)(C(=O)CO)C[C@@H]3O[C@H]1C[C@H](N)[C@H](O)[C@H](C)O1 [DOX, Doxorubicin, reference compound] | – | – | – | – | – | – | – | – | – | – | – | – | – | – | – | 0.83 | significantly increased the levels of ROS
